Patent US5928915A, “CHO cell sialidase by recombinant DNA technology” (Genentech, Inc., priority 1997, dated 1999)

Columns and labels:
[1] = molecular target: T1, CHO cell sialidase (Cricetulus griseus, UniProt Q64393); test: Inhibition of CHO cell sialidase (competitive inhibitor study); format: biochemical, Chinese hamster
T1 construct: The sialidase described was purified from the cell culture fluid of a single production cell line (CHO 14.16); endogenous in cells; host or cells: CHO 14.16 cells (purified from the cell culture fluid)
T1 sequence (Q64393 whole entry): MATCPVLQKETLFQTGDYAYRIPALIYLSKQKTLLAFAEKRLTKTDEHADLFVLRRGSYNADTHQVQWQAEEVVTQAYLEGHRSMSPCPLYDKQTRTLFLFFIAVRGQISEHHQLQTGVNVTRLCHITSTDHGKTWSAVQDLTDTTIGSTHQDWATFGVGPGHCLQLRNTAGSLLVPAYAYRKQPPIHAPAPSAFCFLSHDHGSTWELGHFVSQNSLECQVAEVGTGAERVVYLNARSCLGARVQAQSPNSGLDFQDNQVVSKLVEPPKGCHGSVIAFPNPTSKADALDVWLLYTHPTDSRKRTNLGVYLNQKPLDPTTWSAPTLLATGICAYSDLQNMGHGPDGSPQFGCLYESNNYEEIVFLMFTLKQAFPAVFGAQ

[2] = molecular target: cytosolic sialidase from rat muscle; conditions: cytosol, previously reported data, unit from footnote c; cited from earlier work
[3] = test system: lysosomal sialidase (fibroblasts); conditions: cited from earlier work
[4] = test system: plasma membrane sialidase (adenovirus transformed kidney cells); conditions: cited from earlier work
[5] = molecular target: T1, CHO cell sialidase; test: Sialidase kinetic constants with soluble sialylglycoconjugate substrates; format: biochemical, Chinese hamster; conditions: for substrate cleavage in words: purified enzyme
Protocol: Fluorescent sialidase assays: Standard assay conditions for monitoring the enzyme activity during purification using the fluorescent substrate analog are: 1.3 mM 4-MUNeu5Ac, 50 mM phosphate buffer, pH 6.8, 0.3 mg bovine serum albumin and varying amounts of enzyme in a total volume of 30 μl. After addition of enzyme the samples are incubated at 37° C. in a shaking water bath for 5 minutes. The reaction is terminated and the fluorescence of the liberated umbelliferone is enhanced by the addition of 2 ml of 80 mM glycine-carbonate buffer, pH 9.7. Quantification of the product is made by measuring the fluorescence of the samples with excitation at 365 nm and emission at 450 nm using a standard of 4-methyl umbelliferone. A unit of enzyme activity is defined as a μmol/min of sialic acid liberated.
(§1) Sialidase assays with natural substrates: When natural substrates are tested with the purified enzyme, the amount of released sialic acid is measured using the thiobarbituric acid assay as modified by Uchida [Uchida et al. J. Biochem., 82:1425 (1977)] using sialic acid as standard. The amount of sialic acid in control samples, which include a complete assay mixture incubated without added enzyme is subtracted from each determination. All samples are cleared by centrifugation (1,000×G, 10 min) prior to determining the absorbance at 540 nm.
Enzyme kinetic parameters: Assay conditions (time and added enzyme) are modified for each substrate so that initial reaction rates are measured. Kinetic parameters are obtained from double reciprocal plots of the substrate saturation curves [Segel, I. H. John Wiley, New York, Enzyme Kinetics, 18 (1975)].
Substrate specificity: Several classes of sialyl glycoconjugates were tested as substrates, TABLE II. […] Transferrin is isolated from human serum and contains only 2,6 linked sialic acid residues [Baenziger, J. U. The Plasma Proteins 2nd Ed. (Putnam, F. W., ed.) 272-398, Academic Press, New York (1984)].

[6] = molecular target: T1, CHO cell sialidase; test: Sialidase activity toward gangliosides and colominic acid (thiobarbiturate assay); format: biochemical, Chinese hamster; set-up: key to Relative Activity: NR: no reaction products detected; conditions: for Relative Activity: substrate 4 mM, initial rate, pH 6.0, cholic acid (0.05%) with lipid substrates, α-2,3 sialyllactose = 100; for ganglioside hydrolysis in words: cholic acid as solubilizing agent
Protocol: as §1
Some gangliosides are degraded by the sialidase (TABLE III), although these substrates require the presence of cholic acid as a solubilizing agent in the assay for optimal activity.

Compound | substrate cleavage in words [5] | Relative Activity [6] | ganglioside hydrolysis in words [6] | further results
CC(=O)N[C@H]1[C@H]([C@H](O)[C@H](O)CSc2ccc(N=[N+]=[N-])cc2[N+](=O)[O-])OC(C(=O)O)=C[C@@H]1O [9-PANP-Neu5Ac2en, 9-S-(4'-azido-2'-nitro-phenyl)-5-acetamido-2,6 anhydro-9-thio-2,5,9-trideoxy-D-glycero-D-galacto-non-2-enonic acid] |  |  |  | inhibition in words [1]: weakly inhibited
CC(=O)N[C@H]1[C@H]([C@H](O)[C@H](O)CN=[N+]=[N-])OC(C(=O)O)=C[C@@H]1O [9-azido-Neu5Ac2en, 5-acetamido-2,6-anhydro-9-azido-3,5,9-trideoxy-D-glycero-D-galacto-non-2-enonic acid] |  |  |  | Ki [2]: 50 µM; inhibition in words [1]: moderately inhibited; inhibition in words [3]: strongly inhibited; Ki ([4]; adenovirus transformed kidney cells, plasma membrane, previously reported data, unit from footnote c): 10 µM; inhibition in words ([4]; plasma membrane sialidase): strongly inhibited
CC(=O)N[C@H]1[C@H]([C@H](O)[C@H](O)CO)O[C@@](O[C@H](CO)[C@@H](O)[C@@H]2OC(O)(C(=O)O)C[C@H](O)[C@H]2NC(C)=O)(C(=O)O)C[C@@H]1O (some centres unmarked) [Sialic acid dimer] | substrates for the enzyme |  |  | 
CC(=O)N[C@H]1[C@H]([C@H](O)[C@H](O)CO)O[C@@](O[C@H]2[C@@H](O)[C@@H](CO)O[C@@H](O[C@H]3[C@H](O)[C@@H](O)C(O)O[C@@H]3CO)[C@@H]2O)(C(=O)O)C[C@@H]1O (some centres unmarked) [sialyl lactose] | readily cleaved |  |  | 
CC(=O)N[C@H]1[C@H]([C@H](O)[C@H](O)CO)O[C@@](O[C@H]2[C@@H](O)[C@@H](CO)O[C@@H](O[C@H]3[C@H](O)[C@@H](O)C(O)O[C@@H]3CO)[C@@H]2O)(C(=O)O)C[C@@H]1O (stereo partly drawn) [α-2,3 Sialyllactose] |  | 100% |  | 
Colominic Acid | hydrolyzed but at substantially reduced rates | 4% |  | 
II^3 (NeuAc)2 -GgOse4 Cer [GD1b] |  | NR | not substrates | 
II^3 NeuAc-GgOse3 Cer [GM2] |  | NR | not substrates | 
II^3 NeuAc-GgOse4 Cer [GM1] |  | NR | not substrates | 
II^3 NeuAc-LacCer [GM3] |  | 29% | hydrolyzed at comparable rates | 
IV^3 NeuAc, II^3 (NeuAc)2 -GgOse4 Cer [GT1b] |  | 23% | hydrolyzed at comparable rates | 
IV^3 NeuAc, II^3 NeuAc-GgOse4 Cer [GD1a] |  | 21% | hydrolyzed at comparable rates | 
Transferrin: isolated from human serum and contains only 2,6 linked sialic acid residues | cleaved much more slowly than that bound to recombinant human deoxyribonuclease I |  |  | Vmax ([5]; apparent, standard assay conditions, average of duplicates, relative error about 10%): 2 µmol/min/mg; Km values compared (in words) ([5]; transferrin versus deoxyribonuclease I): nearly identical
